For series [1], the system named is Aβ40 and Aβ42. More on the design: method as in PMID 25331948. The conditions noted are these: 2 mg/kg; cited from earlier work.
Series [2] relates to tau phosphorylation. More on the design: method as in PMID 25331948. The conditions noted are these: only observed at 10 μM; cited from earlier work.
The test system of series [3] is GPCRs. Particulars: profiled against many of the same GPCRs; cited from earlier work.
The test system of series [4] is tau phosphorylation. Details: method as in PMID 32063836, PMID 28502066. Particulars: cited from earlier work.
Series [5] has as its system HMC3 (human microglia) immortalized cell line. The series can be described thus: pHrodo-myelin phagocytosis assay, HMC3. Particulars: 10-point dose-response up to 20 or 40 μM, 24 or 48 h. Format: cell-based. The protocol:
(§1) Microglial viability and phagocytosis studies: The pHrodo-myelin phagocytosis/cell viability assay, modified based on a published method, was run with BV2 (mouse microglia) and HMC3 (human microglia) immortalized cell lines in the Chu lab at IUSM. The 384-well plate high content analysis assay with BV2 and HMC3 microglial cell lines is used to quantify phagocytosis and cell viability simultaneously. High content imaging is performed with the ArrayScan automatic imaging system and imaging analysis done with the system’s software. Cells are treated with compounds for total 48 hours including final 20 hours seeded with pHrodo-myelin (labeled phagocytosis ligand, purified from mouse brain), then cells are stained with Hoechst- […]
(§2) Three measurements are extracted from the assay: 1) phagocytosis signal by mean total phagocytosis spot intensity per cell, 2) total cell counts per well as the main measurement of cell viability, and 3) mean average nuclear intensity per cell as profiling of cell health since apoptotic cells showing nuclear intensity increase (early apoptosis) and decrease (later apoptosis), respectively. […]
(§3) dose-response follow-up in duplicate or triplicate. These compounds were initially dosed up to […]

Series [6] relates to BV2 (mouse microglia) immortalized cell line. Nature of the series: pHrodo-myelin phagocytosis assay, BV2. Format: cell-based. The conditions noted are these: 10-point dose-response up to 20 or 40 μM, 24 or 48 h. The protocol: as §1, §2, §3
Series [7] relates to HMC3 (human microglia) immortalized cell line. Nature of the series: Microglial cell viability (cell count, nuclear measures), HMC3. Format: cell-based. The conditions noted are these: 10-point dose-response up to 20 or 40 μM, 24 or 48 h. The procedure:
Microglial viability and phagocytosis studies: The pHrodo-myelin phagocytosis/cell viability assay, modified based on a published method, was run with BV2 (mouse microglia) and HMC3 (human microglia) immortalized cell lines in the Chu lab at IUSM. The 384-well plate high content analysis assay with BV2 and HMC3 microglial cell lines is used to quantify phagocytosis and cell viability simultaneously. High content imaging is performed with the ArrayScan automatic imaging system and imaging analysis done with the system’s software. Cells are treated with compounds for total 48 hours including final 20 hours seeded with pHrodo-myelin (labeled phagocytosis ligand, purified from mouse brain), then cells are stained with Hoechst-33342 one hour before the imaging. Three measurements are extracted from the assay: 1) phagocytosis signal by mean total phagocytosis spot intensity per cell, 2) total cell counts per well as the main measurement of cell viability, and 3) mean average nuclear intensity per cell as profiling of cell health since apoptotic cells showing nuclear intensity increase (early apoptosis) and decrease (later apoptosis), respectively.
Based on the single-concentration data, several compounds were selected for 10-point dose-response follow-up in duplicate or triplicate. These compounds were initially dosed up to 20 μM for 24h. […]

Series [8] concerns BV2 (mouse microglia) immortalized cell line. The series can be described thus: Microglial cell viability (cell count, nuclear measures), BV2. Particulars: 10-point dose-response up to 20 or 40 μM, 24 or 48 h. Format: cell-based. The protocol:
as §1, §2, §3

The subject of series [9] is HMC3 (human microglia) immortalized cell line. Particulars: cited from earlier work; for Phagocytosis HMC3: 10 μM single concentration, normalized to control (DMSO) treated cells.
Series [10] has as its system BV2 (mouse microglia) immortalized cell line. Particulars: cited from earlier work; for Phagocytosis BV2: 10 μM single concentration, normalized to control (DMSO) treated cells.
Series [11] has as its system cellular system. Details: method as in column References for potency and dosing (the 5th table c13). Particulars: published data; References for potency and dosing; cited from earlier work.
Series [12] relates to HMC3 (human microglia) immortalized cell line. The conditions noted are these: 10 μM single concentration, normalized to control (DMSO) treated cells; in % (unit assumed); cited from earlier work.
Series [13] deals with BV2 (mouse microglia) immortalized cell line. Particulars: 10 μM single concentration, normalized to control (DMSO) treated cells; in % (unit assumed); cited from earlier work.
The conditions of series [14]: aqueous, neutral pH (7.4); cited from earlier work.
For series [15], the system named is CYP3A43. Particulars: published affinity; ref PubMed 10801218, 1526623; cited from earlier work.
In series [16] the test system is ALK. More on the design: method as in PubMed 24819116, 25733882. The conditions noted are these: published affinity; ref PubMed 24819116, 25733882; cited from earlier work.
Series [17] has as its system ERBB3 (HER3). More on the design: method as in PubMed 20145185. The conditions noted are these: published affinity; ref PubMed 20145185; cited from earlier work.
Where [18] appears, read: 10 μM, murine immortalized microglial cells.
Where [19] appears, read: 10 μM, human immortalized microglial cells.

Results on seven compounds are retold here after article PMC9005681, “Use of AD Informer Set compounds to explore validity of novel targets in Alzheimer's disease pathology” (Alzheimer's & Dementia : Translational Research & Clinical …, 2022).

Counter-ions that a name gives are not always drawn. Like-named read-outs stand apart in the source and are kept apart here. Bounds are passed on as bounds.

Regarding `COc1ccc(-c2cc3nccn3c(Nc3ncccc3C(N)=O)n2)cc1OC` [BAY61‐3606], in series [1], the “Detectable levels of Aβ40 and Aβ42” value is recorded as “significant reduction”. Besides, the Tau phosphorylation result in [2] is “indirectly reduces tau phosphorylation”.
Consider `COc1cc(-c2cc3ncccc3c(O[C@H](C)[C@H]3CNC(=O)C3)n2)cc(OC)c1OC` [BI1002494], for which, in series [3], the “GPCR affinity (published profiling)” value is “lacked this activity”.
For the compound `O=c1c2ccccc2[se]n1-c1ccccc1` [Ebselen], in series [4], the Tau phosphorylation result is reported as “decrease tau phosphorylation”.
As for `CC(=O)N1CCN(c2ccc(OCC3COC(Cn4ccnc4)(c4ccc(Cl)cc4Cl)O3)cc2)CC1` (stereo not drawn) [UNC10100724A, Ketoconazole], the “Phagocytosis in dose-response follow-up, HMC3” value in series [5] is reported as “stimulation of phagocytosis was observed”. Besides, the “Phagocytosis in dose-response follow-up, BV2” value in series [6] is recorded as “stimulation of phagocytosis was observed”. Also, in series [7], the “Toxicity in dose-response follow-up, HMC3” value was “without notable toxicity”. In addition, the “Toxicity in dose-response follow-up, BV2” value in [8] is on record as “without notable toxicity”. Besides, the “Phagocytosis HMC3” value in [9] was 144.4. For the same compound, the “Phagocytosis BV2” value in series [10] is listed as 280.0. Further, in [10] (setting [18]), the “Stimulation of mouse microglial phagocytosis at 10 μM (>150% control)” value is “Y (The compound was found to stimulate phagocytosis (response threshold: >150% control) when murine immortalized microglial cells were dosed at 10 μM (Y: yes))”. In addition, the “Reported as cell active (<10 μM)” value in series [11] was “Y (Published data supports that the compound is active in a cellular system when dosed at 10 μM (Y/N))”. Besides, in series [12], the “Cell number HMC3” value is 125.5, the “DNA intensity HMC3” value was 100.1 and the “Nuclear size HMC3” value is reported as 96.3. For the same compound, in series [13], the “Cell number BV2” value was 129.7, the “DNA intensity BV2” value is 104.7 and the “Nuclear size BV2” value is listed as 103.8. Further, the Kinetic solubility in series [14] is 119.6 µM. Besides, the “Reported on-target biochemical potency, CYP3A43” value in series [15] is listed as 64000 nM.
Turning to `COc1cc2c(cc1OC)C(=O)C(CC1CCN(Cc3ccccc3)CC1)C2` (stereo not drawn) [UNC10240506B, Donepezil Hydrochloride (E2020)], the “Reported as cell active (<10 μM)” value in series [11] was “Y (Published data supports that the compound is active in a cellular system when dosed at 10 μM (Y/N))”. Moreover, in series [12], the “Cell number HMC3” value is reported as 130.2 and the “DNA intensity HMC3” value was 98.0. Further, the “DNA intensity BV2” value in series [13] was 104.5.
With `C[C@H]1Oc2cc(cnc2N)-c2c(nn(C)c2C#N)CN(C)C(=O)c2ccc(F)cc21` [UNC10244898A, Lorlatinib], the “Phagocytosis in dose-response follow-up, HMC3” value in [5] is given as “inhibition/stimulation of phagocytosis occurred at a much lower concentration”. Moreover, the “Phagocytosis in dose-response follow-up, BV2” value in [6] is on record as “inhibition/stimulation of phagocytosis occurred at a much lower concentration”. Further, the “Toxicity in dose-response follow-up, HMC3” value in series [7] is on record as “Some toxicity was observed”. Besides, in [8], the “Toxicity in dose-response follow-up, BV2” value is “Some toxicity was observed”. Also, the “Phagocytosis HMC3” value in series [9] was 37.8. Also, the “Inhibition of human microglial phagocytosis at 10 μM (<70% control)” value in series [9] (setting [19]) is given as “Y (The compound was found to inhibit phagocytosis (response threshold: <70% control) when human immortalized microglial cells were dosed at 10 μM (Y: yes))”. Also, in [10], the “Phagocytosis BV2” value is 200.3. Moreover, the “Stimulation of mouse microglial phagocytosis at 10 μM (>150% control)” value in series [10] (setting [18]) was “Y (The compound was found to stimulate phagocytosis (response threshold: >150% control) when murine immortalized microglial cells were dosed at 10 μM (Y: yes))”. Also, in series [16], the “Reported on-target biochemical potency, ALK” value is on record as under 0.07 nM. In addition, in series [11], the “Reported as cell active (<10 μM)” value is on record as “Y (Published data supports that the compound is active in a cellular system when dosed at 10 μM (Y/N))”. Further, in series [12], the “Cell number HMC3” value is given as 127.2, the “DNA intensity HMC3” value is reported as 89.2 and the “Nuclear size HMC3” value is given as 110.3. In addition, in series [13], the “Cell number BV2” value is 117.2, the “DNA intensity BV2” value is listed as 110.1 and the “Nuclear size BV2” value is recorded as 102.7. The Kinetic solubility in [14] is 172 µM.
Take `CNC(=O)CN1CCC(Oc2cc3c(Nc4cccc(Cl)c4F)ncnc3cc2OC)CC1` [UNC10302865A, Sapitinib (AZD8931)]: the “Phagocytosis in dose-response follow-up, HMC3” value in [5] is given as “stimulation of microglial phagocytosis”. Moreover, in series [6], the “Phagocytosis in dose-response follow-up, BV2” value is “inhibition of phagocytosis”. Also, the “Toxicity in dose-response follow-up, BV2” value in series [8] was “Some toxicity was observed at the highest concentrations”. Further, in series [9], the “Phagocytosis HMC3” value was 152.7. For the same compound, the “Stimulation of human microglial phagocytosis at 10 μM (>150% control)” value in [9] (setting [19]) is “Y (The compound was found to stimulate phagocytosis (response threshold: >150% control) when human immortalized microglial cells were dosed at 10 μM (Y: yes))”. The “Phagocytosis BV2” value in series [10] is 68.8. In addition, in series [10] (setting [18]), the “Inhibition of mouse microglial phagocytosis at 10 μM (<70% control)” value was “Y (The compound was found to inhibit phagocytosis (response threshold: <70% control) when murine immortalized microglial cells were dosed at 10 μM (Y: yes))”. Also, the “Reported on-target biochemical potency, ERBB3 (HER3)” value in series [17] is recorded as 4 nM. For the same compound, the “Reported as cell active (<10 μM)” value in series [11] is on record as “Y (Published data supports that the compound is active in a cellular system when dosed at 10 μM (Y/N))”. For the same compound, in series [12], the “Cell number HMC3” value was 132.1, the “DNA intensity HMC3” value was 90.8 and the “Nuclear size HMC3” value is recorded as 105.8. Also, in [13], the “Cell number BV2” value is listed as 102.4, the “DNA intensity BV2” value is listed as 101.0 and the “Nuclear size BV2” value was 110.1. The Kinetic solubility in [14] was 114.6 µM.
